Here are results for eight compounds from US20260001914A1, “MACROCYCLIC PEPTIDES TARGETING KRAS” (Merck Sharp & Dohme LLC, priority 2022, published 2026).

pEC50: −log10 of the molar value. *1 amine or outer side, *2 acyl side, *3 side chain or, on linkers, in order; H or OH if unused. Where a SMILES comes first, the peptide text is derived from it. Bridges are numbered along the chain shown (N, C = ends). [ ]: non-standard residue; d: D form. Ala(pyrimidin-5-yl) = N[C@@H](Cc1cncnc1)C(=O)O; NMe3Pal(5-F) = CN[C@@H](Cc1cncc(F)c1)C(=O)O; Nle(5,5-F2) = CC(F)(F)CC[C@H](N)C(=O)O; 1Nal = N[C@@H](Cc1cccc2ccccc12)C(=O)O; NHCH2CH2SCH2CO = O=C(CSCCN[*:1])[*:2]; Phe(2-F) = N[C@@H](Cc1ccccc1F)C(=O)O; NMe3Pal = CN[C@@H](Cc1cccnc1)C(=O)O; X1 = O=C(C12CC(CN[*:1])(C1)C2)[*:2]; NMeAad = CN[C@@H](CCCC(=O)O)C(=O)O; NMeR = CN[C@@H](CCCNC(=N)N)C(=O)O; Ala(cPr) = N[C@@H](CC1CC1)C(=O)O; NMeF = CN[C@@H](Cc1ccccc1)C(=O)O; PhLac = O=C(O)[C@@H](O)Cc1ccccc1; 3Pal = N[C@@H](Cc1cccnc1)C(=O)O; d3Pal = N[C@H](Cc1cccnc1)C(=O)O; Ahp(2) = CCCCC[C@H](N)C(=O)O; Cba = N[C@@H](CC1CCC1)C(=O)O; NMeNle = CCCC[C@H](NC)C(=O)O; hLeu = CC(C)CC[C@H](N)C(=O)O; NMeA = CN[C@@H](C)C(=O)O; Nle = CCCC[C@H](N)C(=O)O

For the test, the target named is KRAS-G12D protein (Homo sapiens, UniProt P01116, G12D). Nature of the test: SOS-mediated nucleotide exchange assay (BODIPY-GDP / Tb-streptavidin TR-FRET). In kind it is biochemical. For orientation: In TR-FRET formats the signal depends on donor and acceptor labels being close together.
Chain of KRAS-G12D protein (P01116 1-188 isoform P01116-2 G12D): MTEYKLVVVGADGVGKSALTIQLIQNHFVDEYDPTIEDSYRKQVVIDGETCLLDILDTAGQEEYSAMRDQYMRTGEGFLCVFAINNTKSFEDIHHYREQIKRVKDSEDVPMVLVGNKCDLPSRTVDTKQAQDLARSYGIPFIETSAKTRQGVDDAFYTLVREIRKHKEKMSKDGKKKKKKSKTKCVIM
Consider `CC(C)CC[C@@H]1NC(=O)[C@H](Cc2ccccc2F)NC(=O)[C@H](CC2CC2)NC(=O)[C@H](Cc2cncnc2)NC(=O)[C@H](C)N(C)C(=O)[C@H](Cc2ccccc2)OC(=O)C23CC(CNC(=O)[C@H](Cc4ccccc4)N(C)C1=O)(C2)C3` [compound 260, cyclo(FLac-NMeA-PyrimAla-cPrA-Phe2F-hL-NMeF-amBCP)] (cyclo([Ala(cPr)][Phe(2-F)][hLeu][NMeF][X1][PhLac][NMeA][Ala(pyrimidin-5-yl)])), for which the pEC50 (commonly the EC50 on a negative log10 scale, so that one unit is a factor of ten) is 8.71. With `CCCC[C@@H]1NC(=O)[C@H](Cc2ccccc2F)NC(=O)[C@H](CCCC)N(C)C(=O)[C@@H](Cc2cccnc2)NC(=O)[C@H](CCCNC(=N)N)N(C)C(=O)[C@H](Cc2ccccc2)NC(=O)C23CC(CNC(=O)[C@H](Cc4cccnc4)N(C)C1=O)(C2)C3` [compound 109, cyclo(F-NMeR-d3Pal-NMeNle-Phe2F-Nle-NMe3Pal-amBCP)] (cyclo(F[NMeR][d3Pal][NMeNle][Phe(2-F)][Nle][NMe3Pal][X1])) the figure was 5.92; with `CCCC[C@@H]1NC(=O)[C@H](Cc2cccnc2)NC(=O)[C@H](CCCC(=O)N(C)C)N(C)C(=O)[C@H](Cc2ccccc2)OC(=O)C23CC(CNC(=O)[C@H](Cc4cccnc4)N(C)C(=O)[C@H](CCCC)NC(=O)[C@H](Cc4ccccc4F)NC1=O)(C2)C3` [compound 408, cyclo(FLac-hQdm-3Pal-Nle-Phe2F-Nle-NMe3Pal-amBCP)] (cyclo([3Pal][Nle][Phe(2-F)][Nle][NMe3Pal][X1][PhLac][NMeAad](NMe2))), 6.79; with `CCCC[C@@H]1NC(=O)[C@H](CCCCN)NC(=O)[C@H](CCCNC(=N)N)NC(=O)[C@H](Cc2cccc3ccccc23)NC(=O)CSCCNC(=O)[C@H](Cc2ccccc2)N(C)C(=O)[C@H](CCCC)NC(=O)[C@H](Cc2ccc(O)cc2)NC1=O` [compound 71, cyclo(INal-R-K-Nle-Y-Nle-NMeF-Cysteamine-ClAc)] (cyclo([1Nal]RK[Nle]Y[Nle][NMeF][NHCH2CH2SCH2CO])), 6.28. `CCCCC[C@@H]1NC(=O)[C@H](Cc2ccc(O)cc2)NC(=O)[C@H](CC(C)C)NC(=O)[C@H](Cc2ccc(O)cc2)NC(=O)[C@H](CCCNC(=N)N)NC(=O)[C@H](Cc2cccc3ccccc23)NC(=O)CSC[C@@H](C(N)=O)NC(=O)[C@H](Cc2ccccc2)N(C)C1=O` [compound 7, cyclo(INal-R-Y-L-Y-Ahp-NMeF-Cl-ClAc)] ({CH2CO}-[1Nal]RYLY[Ahp(2)][NMeF]C-NH2; thioether N-8) gave a pEC50 of 5.79. This pEC50 is 0.49 log units lower than that of the compound before. With `C[C@H]1C(=O)N[C@@H](Cc2cccnc2)C(=O)N[C@@H](CC2CCC2)C(=O)N[C@@H](Cc2ccccc2F)C(=O)N[C@@H](CCC(C)(F)F)C(=O)N(C)[C@@H](Cc2cncc(F)c2)C(=O)NCC23CC(C2)(C3)C(=O)O[C@@H](Cc2ccccc2)C(=O)N1C` [compound 285, cyclo(FLac-NMeA-3Pal-cBuA-Phe2F-Nle3F2-NMe3Pal5F-amBCP)] (cyclo([3Pal][Cba][Phe(2-F)][Nle(5,5-F2)][NMe3Pal(5-F)][X1][PhLac][NMeA])) the figure was 7.89; with `CCCC[C@@H]1NC(=O)[C@H](Cc2cccnc2)NC(=O)[C@H](C)N(C)C(=O)[C@H](Cc2ccccc2)NC(=O)C23CC(CNC(=O)[C@H](Cc4cccnc4)N(C)C(=O)[C@H](CCCC)NC(=O)[C@H](Cc4ccccc4F)NC1=O)(C2)C3` [compound 162, cyclo(F-NMeA-3Pal-Nle-Phe2F-Nle-NMe3Pal-amBCP)] (cyclo(F[NMeA][3Pal][Nle][Phe(2-F)][Nle][NMe3Pal][X1])), 6.51. `CCCC[C@@H]1NC(=O)[C@H](Cc2ccc(O)cc2)NC(=O)[C@H](CC2CCCCC2)NC(=O)[C@H](CCCCN)NC(=O)[C@H](CCCNC(=N)N)NC(=O)[C@H](Cc2cccc3ccccc23)NC(=O)CSC[C@H](C(N)=O)NC(=O)[C@H](Cc2ccccc2)N(C)C1=O` [compound 139, cyclo(INal-R-K-Cha-Y-Nle-NMeF-dCl-ClAc)] gave a pEC50 of 5.22.
